Source: patent US20080312164A1 (priority 2006, published 2008)
Read-outs that look alike come from different tables or passages of the source. Marks after values point to notes of the source that are not given here.

Columns and labels:
[1] = tested on: Du145 cells; assay: Calcein AM cytotoxicity assay, Du145; type: cell-based; settings: Homo sapiens, DU-145; Du145, Calcein AM, 72 h; read-out: IC50
Text: (§1) Five serial 1:2 dilutions were made with anhydrous DMSO at 100× the final concentration used in the assay.

[2] = tested on: Du145 cells; assay: Cell Titer-Glo cytotoxicity assay, Du145; type: cell-based; settings: Homo sapiens, DU-145; Du145, Cell Titer-Glo, 72 h; read-out: IC50
Text: as §1

[3] = tested on: HCT-116 cells; assay: Calcein AM cytotoxicity assay, HCT-116; type: cell-based; settings: Homo sapiens; HCT-116, Calcein AM, 72 h; read-out: IC50
Text: as §1

[4] = tested on: HCT-116 cells; assay: Cell Titer-Glo cytotoxicity assay, HCT-116; type: cell-based; settings: Homo sapiens; HCT-116, Cell Titer-Glo, 72 h; read-out: IC50
Text: as §1

[5] = tested on: Hep3B cells; assay: Calcein AM cytotoxicity assay, Hep3B; type: cell-based; settings: Homo sapiens, Calcein AM, 72 h, read-out: IC50
Text: as §1

[6] = tested on: Hep3B cells; assay: Cell Titer-Glo cytotoxicity assay, Hep3B; type: cell-based; settings: Homo sapiens, Cell Titer-Glo, 72 h, read-out: IC50
Text: as §1

[7] = tested on: SF-268 cells; assay: Calcein AM cytotoxicity assay, SF-268; type: cell-based; settings: Homo sapiens; SF-268, Calcein AM, 72 h; read-out: IC50
Text: as §1

[8] = tested on: SF-268 cells; assay: Cell Titer-Glo cytotoxicity assay, SF-268; type: cell-based; settings: Homo sapiens; SF-268, Cell Titer-Glo, 72 h; read-out: IC50
Text: as §1

[9] = tested on: SK-OV-3 cells; assay: Calcein AM cytotoxicity assay, SK-OV-3; type: cell-based; settings: Homo sapiens; SK-OV-3, Calcein AM, 72 h; read-out: IC50
Text: as §1

[10] = tested on: SK-OV-3 cells; assay: Cell Titer-Glo cytotoxicity assay, SK-OV-3; type: cell-based; settings: Homo sapiens; SK-OV-3, Cell Titer-Glo, 72 h; read-out: IC50
Text: as §1

[11] = tested on: NCI/ADR RES cells; assay: Calcein AM cytotoxicity assay, NCI/ADR-RES; type: cell-based; settings: Homo sapiens, Calcein AM, 72 h, read-out: IC50
Text: as §1

[12] = tested on: NCI/ADR RES cells; assay: Cell Titer-Glo cytotoxicity assay, NCI/ADR-RES; type: cell-based, human; settings: Homo sapiens; NCI/ADR-RES, Cell Titer-Glo, 72 h; read-out: IC50
Text: as §1

[13] = tested on: NCI-H460 cells; assay: Calcein AM cytotoxicity assay, NCI-H460; type: cell-based; settings: Homo sapiens; NCI-H460, Calcein AM, 72 h; read-out: IC50
Text: as §1

[14] = tested on: NCI-H460 cells; assay: Cell Titer-Glo cytotoxicity assay, NCI-H460; type: cell-based, human; settings: Homo sapiens; NCI-H460, Cell Titer-Glo, 72 h; read-out: IC50
Text: as §1

[15] = tested on: MCF7 cells; assay: Calcein AM cytotoxicity assay, MCF7; type: cell-based; settings: Homo sapiens; MCF7, Calcein AM, 72 h; read-out: IC50
Text: as §1

[16] = tested on: MCF7 cells; assay: Cell Titer-Glo cytotoxicity assay, MCF7; type: cell-based, human; settings: Homo sapiens; MCF7, Cell Titer-Glo, 72 h; read-out: IC50
Text: as §1

[17] = tested on: NmuMG mouse mammary normal epithelial cells; assay: Calcein AM cytotoxicity assay, NmuMG; type: cell-based; settings: Epithelial cell, NmuMG, Calcein AM, 72 h, read-out: IC50
Text: as §1

[18] = tested on: NmuMG mouse mammary normal epithelial cells; assay: Cell Titer-Glo cytotoxicity assay, NmuMG; type: cell-based; settings: Mus musculus, Epithelial cell; NmuMG, Cell Titer-Glo, 72 h; read-out: IC50
Text: as §1

[19] = tested on: HT-29 cells; assay: MTT cytotoxicity assay, HT-29; type: cell-based; settings: Homo sapiens; HT-29, MTT, 24 h; read-out: IC50
[20] = tested on: human cancer cell lines; assay: Cytotoxicity across the panel of human cancer cell lines (average, high-throughput assays); type: cell-based; settings: for further fold increase in potency from multiple phenyl rings: average IC50 compared with single-ring 23 and 38
Text: as §1

[21] = tested on: NmuMG Cell Line; assay: Cytotoxicity in NmuMG cell line, summary table (assay not stated); type: cell-based; settings: Mus musculus, assay not stated (mostly Cell Titer-Glo values; Calcein AM values for 20, 24, 39)
Text: as §1

[22] = average across eight human cancer cell lines, MTT (HT-29) values excluded, read-out: Cancerous Average IC50 / Average IC50 in Cancer Cell Lines

Structure (SMILES) | IC50 [1] [µM] | IC50 [2] [µM] | IC50 [3] [µM] | IC50 [4] [µM] | IC50 [5] [µM] | IC50 [6] [µM] | IC50 [7] [µM] | IC50 [8] [µM] | IC50 [9] [µM] | IC50 [10] [µM] | IC50 [11] [µM] | IC50 [12] [µM] | IC50 [13] [µM] | IC50 [14] [µM] | IC50 [15] [µM] | IC50 [16] [µM] | IC50 [17] [µM] | IC50 [18] [µM] | IC50 [19] [µM] | IC50 [20, 22] [µM] | further results
CC(C)CN=C=S [Compound 15, 1-isothiocyanato-2-methylpropane] | > 50 | > 50 | 27.6 | > 50 | 32.8 | > 30 | > 50 | > 50 | > 50 | > 50 | > 50 | > 50 | > 50 | > 50 | > 50 | > 50 | > 200 | > 200 | > 50 | > 50 | IC50 ([20]; Homo sapiens, Calcein AM and CellTiter Glo, all cell lines (FIG. 3 legend), read-out: IC50, all cell lines): > 50 µM; Cancerous Average IC50 / Average IC50 in Cancer Cell Lines ([20]; average across eight human cancer cell lines, MTT (HT-29) values excluded): >50.00^b μM; IC50 [21]: > 200 µM
S=C=NCc1cccc2ccccc12 [Compound 30, 1-(isothiocyanatomethyl)naphthalene] | 8.31 | 16.8 | > 20 | 4.55 | 15.2 | 19.8 | 2 | 3.39 | 3.22 | 4.89 | 8.93 | 9.71 | 12.6 | 13.3 | < 3.13 | 2.27 | 13.8 | 21.4 | > 50 | 9.16 | 
S=C=N[C@H]1CCCc2ccccc21 [Compound 31, (S)-1-isothiocyanato-1,2,3,4-tetrahydronaphthalene] | 12.4 | 17.4 | 33 | 12.2 | 13.1 | 20.1 ± 0.53 | 8.51 | 10.5 | > 30 | 12.7 | 25.1 | 30.9 | 25.4 | 31.6 | 14.5 | 14.4 | 18.6 | 15.4 | > 50 | 17.2 | 
S=C=NCc1cccc(-c2ccccc2)c1 [Compound 34, 1-(isothiocyanatomethyl)-3-phenylbenzene] | 7.11 | 3.87 | 2.93 | 3.33 | 6.9 | 2.11 | 3.95 | 3.39 | 4.92 | 3.83 | 1.47 | 2.23 | 3.53 | 5.29 | 2.52 | 2.13 | 5.95 | 3.06 | 28.8 | 3.27 | selectivity for cancer cells over NmuMG cells ([20]; IC50 in NmuMG versus average IC50 in cancer cell lines): non-selective; further fold increase in potency from multiple phenyl rings [20]: ~2 fold
S=C=NCc1ccc(-c2ccccc2)cc1 [Compound 35, 1-(isothiocyanatomethyl)-4-phenylbenzene] | 5.49 | 11 | 7.54 | 4.83 | 4.33 | 4.51 | 6.26 | 4.4 | < 3.13 | 4.65 | 6.73 | 12.1 | 10.5 | 15 | 2.91 | 6.72 | < 12.5 | 65.7 | > 50 | 7.89 | further fold increase in potency from multiple phenyl rings [20]: ~2 fold
S=C=NCc1ccc(Oc2ccccc2)cc1 [Compound 36, 1-(isothiocyanatomethyl)-4-phenoxybenzene] | 12.2 | 8.24 | 4.19 | 3.55 | 7.17 | 3.95 | 6.17 | 5.06 | 3.93 | 3.99 | 3.93 | 3.3 | 4.47 | 9.12 | 6.34 | 6.16 | < 12.5 | 187 | 37.6 | 4.84 | further fold increase in potency from multiple phenyl rings [20]: ~2 fold
S=C=NCCc1ccccc1 [Compound 38, 1-(2-isothiocyanatoethyl)benzene] | 43.1 | 10.9 | 12.7 | 10.3 | 46.2 | 11.1 | 8.66 | 7.2 | 16.7 | 13.5 | 10.5 | 12.1 | 12.1 | 13.7 | 23.7 | 13.1 | < 12.5 | 17.7 | 33.2 | 11.5 | 
S=C=NCC(c1ccccc1)c1ccccc1 [Compound 40, 2-isothiocyanato-1,1-diphenylethane] | 3.51 | 3.65 | 3.26 | 1.22 | 3.58 | 4.3 | 3.49 | 3.33 | 5.26 | 4.52 | 3.95 | 4.47 | 9.91 | 5.64 | 3.62 | 3.68 | 5.81 | 3.62 | 22.9 | 4.11 | further fold increase in potency from multiple phenyl rings [20]: ~2 fold
